Measured values published in patent US7932228B2, “Method of treating bone or prostate cancer with selective bradykinin B1 receptor antagonists” (Societe de Commercialisation des Produits de la Recherche …, priority 2004, dated 2011).

Tests used:
[1] = test system: MAT-LyLu-B2 prostate cancer cells; test: orthoptic prostate cancer rat model (tumor progression); type: in vivo; settings: male Copenhagen rats, 3 mg/kg s.c. daily from day 1, 21 days after surgery, n=5-6, p<0.05; saline 1856±443 mg
Method: The potential of a BKB1-R antagonist to inhibit tumor progression in an orthoptic prostate cancer rat model was evaluated. Under anesthesia, male Copenhagen rats were injected in the anterior prostatic lobe with 100 000 MAT-LyLu-B2 prostate cancer cells. One day after the surgery, the animals received a daily injection of either saline or Compound A (3 mg/kg s.c.). At 21 days after the surgery, the animals were sacrificed and the prostate tumor was excised and weighted. Average weight of the prostate and tumor was 1856±443 mg for saline-treated rats and 504±135 mg with Compound A-treated animals (n=5-6 p<0.05). Two other cancerous cell-types (R 3327-G, MAT-Lu) were implanted in rats and similar results were obtained at inhibiting tumor progression dose-dependently over periods of time. A BKB1-Ra was also reported effective at stopping and reversing the progression of established tumor, considering efficacy, reversibility and relapse of treatment. These elements were maintained upon dual and triple combinations with other anti-cancer, anti-angiogenic, anti-proliferative agents such as taxane and platinum related compounds.

PC-3 cells = settings: in vitro, cited from earlier work

In the case of “Ac-Orn[Oic^2,(α-Me)Phe^5,D-βNal^7,Ile^8]desArg^9BK [Compound A]”, the “Average weight of the prostate and tumor” value [1] is reported as 504 ± 135 mg.
In the case of “Arg Pro Pro Gly Phe Ser Pro Phe (RPPGFSPF; desArg9 BK) [desArg^9-BK]”, the “cell growth and proliferation of PC-3 cells” value (PC-3 cells; BKB1-R agonist alone) is listed as “stimulated”.
In the case of [Leu^8]desArg^9-BK, the “effect on desArg^9-BK-stimulated growth of PC-3 cells” value (PC-3 cells; growth stimulated by desArg^9-BK) is given as “blocked”.
